Reference: PMC4854315, “Discovery of a novel allosteric inhibitor-binding site in ERK5: comparison with the canonical kinase hinge ATP-binding site” (Acta Crystallographica. Section D, Structural Biology, 2016)

Columns and labels:
Experiment in all cases: Z'-LYTE kinase panel
Type in all cases: biochemical
[1] = target: T1, MAPK9 (JNK2) (Homo sapiens, UniProt P45984); details: 10 µM compound; ATP 100
T1 construct: purchased ThermoFisher (SelectScreen, Z'-LYTE)
Procedure, shortened: (§1)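 Each compound was added at 10 µM, kinase activity was then measured via the standard Z′-LYTE assay, and percentage inhibition was calculated; 225 kinases were covered.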

[2] = target: T2, FGR (Homo sapiens, UniProt P09769)
T2 construct: purchased ThermoFisher (SelectScreen, Z'-LYTE)
Procedure, shortened: as §1

[3] = target: T3, CSNK1G1 (CK1 gamma 1) (Homo sapiens, UniProt Q9HCP0)
T3 construct: purchased ThermoFisher (SelectScreen, Z'-LYTE)
Procedure, shortened: as §1

[4] = target: T4, ROS1 (Homo sapiens, UniProt P08922)
T4 construct: purchased ThermoFisher (SelectScreen, Z'-LYTE)
Procedure, shortened: as §1

[5] = target: T5, SRC (Homo sapiens, UniProt P12931)
T5 construct: purchased ThermoFisher (SelectScreen, Z'-LYTE)
Procedure, shortened: as §1

[6] = target: T6, NEK6 (Homo sapiens, UniProt Q9HC98)
T6 construct: purchased ThermoFisher (SelectScreen, Z'-LYTE)
Procedure, shortened: as §1

[7] = target: T7, IKBKE (IKK epsilon) (Homo sapiens, UniProt Q14164)
T7 construct: purchased ThermoFisher (SelectScreen, Z'-LYTE)
T7 sequence (Q14164 1-716): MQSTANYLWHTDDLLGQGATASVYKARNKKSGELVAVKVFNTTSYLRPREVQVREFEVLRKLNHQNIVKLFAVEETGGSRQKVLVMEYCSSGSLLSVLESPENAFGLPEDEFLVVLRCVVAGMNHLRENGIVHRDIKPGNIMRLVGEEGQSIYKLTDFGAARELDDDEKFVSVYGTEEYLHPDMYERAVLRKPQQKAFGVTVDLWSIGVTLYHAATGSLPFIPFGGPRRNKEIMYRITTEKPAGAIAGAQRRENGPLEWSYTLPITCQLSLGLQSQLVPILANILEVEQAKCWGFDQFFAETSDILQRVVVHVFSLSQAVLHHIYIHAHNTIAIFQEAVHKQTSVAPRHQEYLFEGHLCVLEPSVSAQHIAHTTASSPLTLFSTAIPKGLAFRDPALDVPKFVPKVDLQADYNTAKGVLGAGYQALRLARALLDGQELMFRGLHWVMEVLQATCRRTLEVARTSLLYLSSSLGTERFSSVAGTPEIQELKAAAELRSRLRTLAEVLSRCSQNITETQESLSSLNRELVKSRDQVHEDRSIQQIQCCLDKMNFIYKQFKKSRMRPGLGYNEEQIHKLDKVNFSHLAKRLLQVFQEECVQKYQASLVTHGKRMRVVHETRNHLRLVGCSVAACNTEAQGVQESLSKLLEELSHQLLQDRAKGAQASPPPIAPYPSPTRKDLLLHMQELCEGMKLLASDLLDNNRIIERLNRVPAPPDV
Procedure, shortened: as §1

[8] = target: T8, SGKL (SGK3) (Homo sapiens, UniProt Q96BR1)
T8 construct: purchased ThermoFisher (SelectScreen, Z'-LYTE)
T8 sequence (Q96BR1 1-496): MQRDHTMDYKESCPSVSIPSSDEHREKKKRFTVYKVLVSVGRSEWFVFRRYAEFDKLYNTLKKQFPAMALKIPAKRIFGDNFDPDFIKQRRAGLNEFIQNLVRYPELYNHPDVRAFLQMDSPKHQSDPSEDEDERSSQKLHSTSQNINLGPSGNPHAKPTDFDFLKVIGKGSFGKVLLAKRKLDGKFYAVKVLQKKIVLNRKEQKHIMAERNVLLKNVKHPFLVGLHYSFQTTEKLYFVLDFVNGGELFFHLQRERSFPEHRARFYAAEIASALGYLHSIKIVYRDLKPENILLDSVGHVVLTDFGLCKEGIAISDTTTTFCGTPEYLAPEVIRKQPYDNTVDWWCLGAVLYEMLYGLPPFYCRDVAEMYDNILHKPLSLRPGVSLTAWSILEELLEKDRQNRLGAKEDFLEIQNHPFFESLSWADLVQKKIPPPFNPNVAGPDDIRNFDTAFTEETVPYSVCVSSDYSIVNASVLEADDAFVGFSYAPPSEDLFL
Procedure, shortened: as §1

[9] = target: T9, IGF1R (Homo sapiens, UniProt P08069)
T9 construct: purchased ThermoFisher (SelectScreen, Z'-LYTE)
Procedure, shortened: as §1

[10] = target: T10, DYRK4 (Homo sapiens, UniProt Q9NR20)
T10 construct: purchased ThermoFisher (SelectScreen, Z'-LYTE)
T10 sequence (Q9NR20 1-520): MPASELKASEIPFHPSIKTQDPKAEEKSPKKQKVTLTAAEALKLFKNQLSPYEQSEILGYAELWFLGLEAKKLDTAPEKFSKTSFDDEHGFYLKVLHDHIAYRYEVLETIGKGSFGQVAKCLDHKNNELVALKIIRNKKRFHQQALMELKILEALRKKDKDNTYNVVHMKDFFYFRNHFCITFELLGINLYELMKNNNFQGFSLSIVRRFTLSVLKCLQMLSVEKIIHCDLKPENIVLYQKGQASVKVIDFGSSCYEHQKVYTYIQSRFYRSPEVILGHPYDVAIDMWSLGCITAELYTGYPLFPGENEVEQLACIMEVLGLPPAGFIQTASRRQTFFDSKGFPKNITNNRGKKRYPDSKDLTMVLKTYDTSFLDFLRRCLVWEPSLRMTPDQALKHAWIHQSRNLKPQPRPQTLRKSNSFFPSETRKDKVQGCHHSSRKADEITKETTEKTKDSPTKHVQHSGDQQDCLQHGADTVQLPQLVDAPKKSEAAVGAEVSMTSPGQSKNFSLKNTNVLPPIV
Procedure, shortened: as §1

[11] = target: T11, LYN B (Homo sapiens, UniProt P07948)
T11 construct: purchased ThermoFisher (SelectScreen, Z'-LYTE)
Procedure, shortened: as §1

[12] = target: T12, NTRK3 (TRKC) (Homo sapiens, UniProt Q16288)
T12 construct: purchased ThermoFisher (SelectScreen, Z'-LYTE)
Procedure, shortened: as §1

[13] = target: T13, MAPK10 (JNK3) (Homo sapiens, UniProt P53779); details: 10 µM compound; ATP 100
T13 construct: purchased ThermoFisher (SelectScreen, Z'-LYTE)
Procedure, shortened: as §1

[14] = target: T14, MAPK11 (p38 beta) (Homo sapiens, UniProt Q15759)
T14 construct: purchased ThermoFisher (SelectScreen, Z'-LYTE)
Procedure, shortened: as §1

[15] = target: T15, BTK (Homo sapiens, UniProt Q06187)
T15 construct: purchased ThermoFisher (SelectScreen, Z'-LYTE)
Procedure, shortened: as §1

[16] = target: T16, STK24 (MST3) (Homo sapiens, UniProt Q9Y6E0)
T16 construct: purchased ThermoFisher (SelectScreen, Z'-LYTE)
Procedure, shortened: as §1

[17] = target: T17, MAPKAPK2 (Homo sapiens, UniProt P49137)
T17 construct: purchased ThermoFisher (SelectScreen, Z'-LYTE)
Procedure, shortened: as §1

T14 sequence (Q15759 whole entry): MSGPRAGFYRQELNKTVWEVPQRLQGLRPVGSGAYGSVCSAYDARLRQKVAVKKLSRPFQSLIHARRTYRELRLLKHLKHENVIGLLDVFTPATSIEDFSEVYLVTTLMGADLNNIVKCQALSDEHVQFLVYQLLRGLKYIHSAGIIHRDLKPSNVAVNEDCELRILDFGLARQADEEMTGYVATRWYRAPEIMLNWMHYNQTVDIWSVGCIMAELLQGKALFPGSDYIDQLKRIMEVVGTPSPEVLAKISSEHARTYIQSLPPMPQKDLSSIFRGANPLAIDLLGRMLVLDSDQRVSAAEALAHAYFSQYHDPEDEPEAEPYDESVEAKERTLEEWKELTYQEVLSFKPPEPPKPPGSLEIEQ
T4 sequence (P08922 28-2347): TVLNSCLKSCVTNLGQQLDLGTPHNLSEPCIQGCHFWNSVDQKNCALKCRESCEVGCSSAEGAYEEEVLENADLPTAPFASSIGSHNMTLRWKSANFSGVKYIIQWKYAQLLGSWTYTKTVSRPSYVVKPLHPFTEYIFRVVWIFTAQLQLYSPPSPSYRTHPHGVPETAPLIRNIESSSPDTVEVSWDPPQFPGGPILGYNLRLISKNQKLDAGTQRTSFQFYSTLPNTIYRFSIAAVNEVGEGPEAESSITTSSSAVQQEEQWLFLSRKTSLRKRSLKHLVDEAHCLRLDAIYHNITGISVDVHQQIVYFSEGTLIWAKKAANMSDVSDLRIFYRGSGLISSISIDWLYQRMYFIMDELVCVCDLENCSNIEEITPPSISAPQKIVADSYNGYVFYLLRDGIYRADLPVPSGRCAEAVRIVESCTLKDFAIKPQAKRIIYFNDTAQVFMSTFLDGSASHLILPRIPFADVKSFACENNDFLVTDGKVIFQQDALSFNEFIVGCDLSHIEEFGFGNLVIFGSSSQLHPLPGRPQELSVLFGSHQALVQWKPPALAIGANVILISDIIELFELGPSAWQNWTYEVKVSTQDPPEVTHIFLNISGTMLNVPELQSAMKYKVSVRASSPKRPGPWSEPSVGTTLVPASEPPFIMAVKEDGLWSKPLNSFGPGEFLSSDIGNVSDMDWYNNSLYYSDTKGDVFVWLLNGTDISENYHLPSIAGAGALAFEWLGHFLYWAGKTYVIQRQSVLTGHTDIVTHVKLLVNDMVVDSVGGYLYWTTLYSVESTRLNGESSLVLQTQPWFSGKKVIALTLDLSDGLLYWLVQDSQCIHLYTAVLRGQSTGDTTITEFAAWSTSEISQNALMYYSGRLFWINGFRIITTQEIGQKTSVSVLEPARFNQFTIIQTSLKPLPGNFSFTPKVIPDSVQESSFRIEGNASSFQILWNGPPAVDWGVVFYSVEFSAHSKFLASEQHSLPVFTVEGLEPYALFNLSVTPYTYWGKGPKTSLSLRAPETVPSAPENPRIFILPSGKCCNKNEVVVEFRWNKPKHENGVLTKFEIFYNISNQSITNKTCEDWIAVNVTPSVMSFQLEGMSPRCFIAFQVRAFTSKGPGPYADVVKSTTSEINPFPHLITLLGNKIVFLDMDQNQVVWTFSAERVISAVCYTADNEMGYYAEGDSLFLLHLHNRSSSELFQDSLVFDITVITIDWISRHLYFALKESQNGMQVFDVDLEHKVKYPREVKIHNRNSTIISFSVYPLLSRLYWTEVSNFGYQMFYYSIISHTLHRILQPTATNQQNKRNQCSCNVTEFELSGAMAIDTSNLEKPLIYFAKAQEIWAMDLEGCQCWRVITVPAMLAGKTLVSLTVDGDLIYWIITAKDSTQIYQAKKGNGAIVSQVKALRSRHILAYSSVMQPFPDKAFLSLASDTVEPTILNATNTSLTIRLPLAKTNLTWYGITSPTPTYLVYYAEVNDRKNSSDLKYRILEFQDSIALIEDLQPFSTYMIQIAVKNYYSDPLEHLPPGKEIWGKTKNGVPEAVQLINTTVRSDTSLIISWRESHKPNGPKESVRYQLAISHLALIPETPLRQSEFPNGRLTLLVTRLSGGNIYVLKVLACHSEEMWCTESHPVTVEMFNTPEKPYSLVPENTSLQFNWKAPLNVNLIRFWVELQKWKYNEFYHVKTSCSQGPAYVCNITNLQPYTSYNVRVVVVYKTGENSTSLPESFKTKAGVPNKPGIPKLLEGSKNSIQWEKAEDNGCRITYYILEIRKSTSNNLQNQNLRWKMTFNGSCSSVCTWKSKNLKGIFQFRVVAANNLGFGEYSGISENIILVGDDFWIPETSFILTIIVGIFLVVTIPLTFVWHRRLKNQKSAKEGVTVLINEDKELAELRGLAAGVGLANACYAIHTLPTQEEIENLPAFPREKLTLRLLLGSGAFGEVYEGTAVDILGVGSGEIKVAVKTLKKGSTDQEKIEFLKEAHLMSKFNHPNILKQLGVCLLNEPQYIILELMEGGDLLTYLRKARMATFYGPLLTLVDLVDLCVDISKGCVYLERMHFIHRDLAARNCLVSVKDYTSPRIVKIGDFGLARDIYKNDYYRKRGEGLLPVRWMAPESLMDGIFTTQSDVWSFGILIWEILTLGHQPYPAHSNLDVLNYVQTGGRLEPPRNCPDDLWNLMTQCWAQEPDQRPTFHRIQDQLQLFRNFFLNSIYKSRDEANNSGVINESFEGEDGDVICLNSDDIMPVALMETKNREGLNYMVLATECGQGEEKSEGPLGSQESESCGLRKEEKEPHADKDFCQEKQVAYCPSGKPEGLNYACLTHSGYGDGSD
T16 sequence (Q9Y6E0 whole entry): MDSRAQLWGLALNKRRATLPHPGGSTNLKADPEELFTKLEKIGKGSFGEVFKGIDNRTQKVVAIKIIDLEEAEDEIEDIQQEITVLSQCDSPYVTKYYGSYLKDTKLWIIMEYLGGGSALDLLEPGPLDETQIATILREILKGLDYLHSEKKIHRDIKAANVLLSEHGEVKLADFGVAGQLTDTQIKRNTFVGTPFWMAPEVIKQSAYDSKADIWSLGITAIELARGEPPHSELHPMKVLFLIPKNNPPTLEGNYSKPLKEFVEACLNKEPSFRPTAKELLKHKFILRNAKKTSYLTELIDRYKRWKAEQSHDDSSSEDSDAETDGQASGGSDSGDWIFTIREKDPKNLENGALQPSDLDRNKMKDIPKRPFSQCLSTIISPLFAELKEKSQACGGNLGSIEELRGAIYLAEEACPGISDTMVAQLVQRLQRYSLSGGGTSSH
T12 sequence (Q16288 32-839): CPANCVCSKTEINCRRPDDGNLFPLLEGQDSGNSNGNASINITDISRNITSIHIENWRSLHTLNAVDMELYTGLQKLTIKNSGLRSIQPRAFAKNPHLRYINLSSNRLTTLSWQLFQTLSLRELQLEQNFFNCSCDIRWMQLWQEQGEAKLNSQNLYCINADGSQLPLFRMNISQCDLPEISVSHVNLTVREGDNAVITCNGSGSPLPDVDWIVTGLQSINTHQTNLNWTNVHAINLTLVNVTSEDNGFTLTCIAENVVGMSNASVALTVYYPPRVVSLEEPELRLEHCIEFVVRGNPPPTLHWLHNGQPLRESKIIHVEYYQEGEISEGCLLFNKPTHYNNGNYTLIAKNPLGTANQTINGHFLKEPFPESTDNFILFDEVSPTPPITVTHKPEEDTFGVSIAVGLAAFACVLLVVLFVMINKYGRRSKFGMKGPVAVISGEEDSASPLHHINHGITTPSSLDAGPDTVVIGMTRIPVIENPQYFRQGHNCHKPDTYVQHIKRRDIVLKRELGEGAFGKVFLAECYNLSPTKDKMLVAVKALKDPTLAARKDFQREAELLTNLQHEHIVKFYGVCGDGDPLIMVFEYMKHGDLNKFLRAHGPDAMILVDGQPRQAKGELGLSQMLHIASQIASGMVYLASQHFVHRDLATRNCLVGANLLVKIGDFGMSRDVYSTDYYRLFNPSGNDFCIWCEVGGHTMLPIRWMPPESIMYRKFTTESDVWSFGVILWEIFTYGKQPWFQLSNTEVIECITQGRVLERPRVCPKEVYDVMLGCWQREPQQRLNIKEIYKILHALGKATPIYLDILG
T11 sequence (P07948 1-491 isoform P07948-2): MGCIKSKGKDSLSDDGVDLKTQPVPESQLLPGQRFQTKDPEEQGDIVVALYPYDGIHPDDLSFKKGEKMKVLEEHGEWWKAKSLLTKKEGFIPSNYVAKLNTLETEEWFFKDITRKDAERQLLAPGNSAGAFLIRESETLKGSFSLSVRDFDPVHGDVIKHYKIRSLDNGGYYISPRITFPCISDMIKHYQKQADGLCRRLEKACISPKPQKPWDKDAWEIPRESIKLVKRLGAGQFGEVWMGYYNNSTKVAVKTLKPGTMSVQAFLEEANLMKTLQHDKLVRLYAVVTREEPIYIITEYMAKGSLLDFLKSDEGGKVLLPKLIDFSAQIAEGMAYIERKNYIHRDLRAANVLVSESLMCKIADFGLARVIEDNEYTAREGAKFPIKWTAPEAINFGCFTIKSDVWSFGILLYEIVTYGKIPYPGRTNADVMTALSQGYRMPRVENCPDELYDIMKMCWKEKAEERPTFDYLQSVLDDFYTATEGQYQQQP
T17 sequence (P49137 whole entry): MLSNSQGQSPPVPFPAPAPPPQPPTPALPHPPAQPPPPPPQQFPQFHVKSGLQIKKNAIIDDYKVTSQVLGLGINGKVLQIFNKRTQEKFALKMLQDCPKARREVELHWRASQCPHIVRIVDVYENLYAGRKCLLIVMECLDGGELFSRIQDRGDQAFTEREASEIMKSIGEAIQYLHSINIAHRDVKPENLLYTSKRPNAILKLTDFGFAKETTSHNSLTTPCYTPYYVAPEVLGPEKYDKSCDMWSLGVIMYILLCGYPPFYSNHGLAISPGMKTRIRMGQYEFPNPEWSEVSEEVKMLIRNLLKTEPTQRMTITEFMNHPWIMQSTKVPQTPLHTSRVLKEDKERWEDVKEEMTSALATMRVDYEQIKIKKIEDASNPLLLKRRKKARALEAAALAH

| Molecule | inhibition at 10 µM [1] | inhibition at 10 µM [2] | inhibition at 10 µM [3] | inhibition at 10 µM [4] | inhibition at 10 µM [5] | inhibition at 10 µM [6] | inhibition at 10 µM [7] | inhibition at 10 µM [8] | inhibition at 10 µM [9] | inhibition at 10 µM [10] | inhibition at 10 µM [11] | inhibition at 10 µM [12] | inhibition at 10 µM [13] | inhibition at 10 µM [14] | inhibition at 10 µM [15] | inhibition at 10 µM [16] | inhibition at 10 µM [17] | further results |
| --- | --- | --- | --- | --- | --- | --- | --- | --- | --- | --- | --- | --- | --- | --- | --- | --- | --- | --- |
| XMD8-92 [Compound 2, reference compound] |  |  |  |  |  |  |  |  |  |  |  |  |  |  |  |  |  | MAPK9 (JNK2) % Inhibition [1]: 5.42%; FGR % Inhibition ([2]; 10 µM compound, ATP Km app): 83%; CSNK1G1 (CK1 gamma 1) % Inhibition ([3]; 10 µM compound, ATP Km app): 24%; ROS1 % Inhibition ([4]; 10 µM compound, ATP Km app): 69%; SRC % Inhibition ([5]; 10 µM compound, ATP Km app): 11%; NEK6 % Inhibition ([6]; 10 µM compound, ATP Km app): 68%; IKBKE (IKK epsilon) % Inhibition ([7]; 10 µM compound, ATP Km app): 4.66%; SGKL (SGK3) % Inhibition ([8]; 10 µM compound, ATP Km app): 96%; IGF1R % Inhibition ([9]; 10 µM compound, ATP Km app): -1.87%; DYRK4 % Inhibition ([10]; 10 µM compound, ATP Km app): 1.2%; LYN B % Inhibition ([11]; 10 µM compound, ATP Km app): 39%; NTRK3 (TRKC) % Inhibition ([12]; 10 µM compound, ATP Km app): 64%; MAPK10 (JNK3) % Inhibition [13]: 9%; MAPK11 (p38 beta) % Inhibition ([14]; 10 µM compound, ATP Km app): 10%; BTK % Inhibition ([15]; 10 µM compound, ATP Km app): 35%; STK24 (MST3) % Inhibition ([16]; 10 µM compound, ATP Km app): 30%; MAPKAPK2 % Inhibition ([17]; 10 µM compound, ATP Km app): 93% |
| Cc1ncc(-c2nc(Nc3ccc(C(=O)NCCN4CCCCC4)cc3)ncc2F)n1C(C)C [Compound 3] | 103% | 90% | 70% | 99% | 79% | 12% | 33% | 67% | 67% | 23% | 91% | 79% | 77% | 22% | 59% | 89% | 52% |  |
| Cc1cc(Nc2nc(N)nn2C(=O)NC(C)C)ccc1Cl [Compound 5] | 4.72% | 54% | 8% | 57% | 26% | 3% | 9% | -11% | -0.717% | 5% | 35% | 52% | 2.76% | 4.21% | 11% | 27% | 6.56% |  |
